US7323541B2, “Polypeptide DNA thereof and use of the same” (Takeda Pharmaceutical Company Limited, priority 2001, dated 2008)

Key:
Format in all cases: cell-based, human
TGR23 gene in COLO 205 = assay: Reduction of TGR23 gene expression (TaqMan PCR); conditions: COLO 205, overnight after transfection
Protocol: (§1) The human colon cancer cell lines COLO 205 and LS 174T, wherein both were used in Example 46, were suspended in the same medium as that used in Example 46. The COLO 205 was seeded at the cell density of 24,000 per well to 24-well collagen type I coated plate (IWAKI), and the LS 174T was seeded at the cell density of 18,000 per well to 24-well flat bottom tissue culture plate (BD Falcon). After cell culture under 5% CO2 gas flow at 37° C. for overnight, in accordance with the method described in Example 46, the antisense oligonucleotide and control oligonucleotide, wherein both were used in Example 46, were transfected. Herein, adding volume of the oligonucleotide solution per well was 390 μl for COLO 205 and 300 μl for LS 174T. After transfection, the cells were cultured under 5% CO2 gas flow at 37° C. for overnight. Subsequently, using RNeasy Mini Total RNA Kit (QIAGEN), total RNA was extracted. Using the thus obtained total RNA as a template and TaqMan Reverse Transcription Reagents (Applied Biosystems), according to the attached protocol, reverse transcription reaction was carried out. Then using TaqMan Universal PCR Master Mix (Applied Biosystems), to the reaction sixture, cDNA corresponding 1.5 to 3 ng of total RNA as a template, 500 nM each of two primers (SEQ ID NO: 9 and SEQ ID NO: 10) and 100 nM FM-labeled probe (SEQ ID NO: 11) were added. The expressed copy numbers of the TGR23 gene were measured. The PCR reaction comprised the incubation at 50° C. for 2 minutes and 95° C. for 10 minutes, followed by the cycle set to include at 95° C. for 15 seconds and at 60° C. for one minute, which is repeated 40 times. When the antisense oligonucleotide and the control oligonucleotide were not transfected, an expression level of the TGR23 gene per 1 ng of total RNA was 620 copies for COLO 205 and 290 copies for LS 174T, whereas in the group with antisense oligonucleotide, it was 210 copies for COLO 205 and 150 copies for LS 174T. […] On the other hand, in the group with control oligonucleotide used as a negative control, the expression was 590 copies for COLO 205 and 280 copies for LS 174T, wherein it was not observed a statistically significant reduction of expression level, compared with non-transfection group.

TGR23 gene in LS 174T = assay: Reduction of TGR23 gene expression (TaqMan PCR); conditions: overnight after transfection
Protocol: as §1

COLO 205 = assay: Apoptosis induction (Cell Death Detection ELISA PLUS); conditions: for Apoptosis inducing activity (A405-A492), Average: COLO 205, oligonucleotide 200 nM, three days
Protocol: (§2) Human colon cancer cell line COLO 205 acquired from ATCC was suspended in the RPMI-1640 medium (containing 25 mM HEPES) supplemented with 10% fetal calf serum (ATCC), and seeded at the cell density of 4000 per well in 96-well collagen type I coated plate (IWAKI). Human colon cancer cell line LS 174T acquired from ATCC was suspended in the Eagle's MEM, which is supplied from Invitrogen, supplemented with 10% fetal calf serum (ATCC), and seeded at the cell density of 3000 per well in 96-well flat bottom culture plate (BD Falcon). Human colon cancer cell line HCT 116 (ATCC) was suspended in D-MEM medium (containing 10 mM HEPES), which is supplied from Invitrogen, supplemented with 10% fetal calf serum (ATCC), and seeded at the cell density of 3000 per well in 96-well flat bottom culture plate (BD Falcon). After incubation under 5% CO2 gas flow at 37° C. for overnight, antisense oligonucleotide was transfected.
(§3) Antisense oligonucleotide sequence (SEQ ID NO: 123), which hybridizes to the translation region of TGR23 gene, was designed. Phosphorothioate-oligonucleotide was synthesized and purified by HPLC to use the transfection experiment (hereinafter, referred to as antisense oligonucleotide). For control, a reverse sequence (SEQ ID NO: 124) of the base sequence represented by SEQ ID NO: 123 was phosphorothioated and purified by HPLC to use (hereinafter, referred to as control oligonucleotide).
(§4) Specifically, in the case of COLO 205, to FuGENE™6 Transfection Reagent (Roche Diagnostics), which was diluted 167 fold with Opti-MEM I (Invitrogen), antisense oligonucleotide or control oligonucleotide was added. The mixed oligonucleotide solution was added to the plate at the ratio of 65 μl per well. The final concentration of oligonucleotide was adjusted to 200 nM. In the case of LS 174T, to Lipofectamine™2000 (Invitrogen), which was diluted 32 fold with Opti-MEM I (Invitrogen), antisense oligonucleotide or control oligonucleotide, which was diluted with Opti-MEM I (Invitrogen), was added at the ratio of 1:1. The mixed oligonucleotide solution was added to the plate at the ratio of 50 μl per well. The final concentration of oligonucleotide was adjusted to 33 nM. In the case of HCT 116, to OLIGOFECTAMINE™ Reagent (Invitrogen), which was diluted 5 fold with Opti-MEM I (Invitrogen), antisense oligonucleotide or control oligonucleotide, which was diluted with Opti-MEM I (Invitrogen), was added at the ratio of 3:8. The mixed oligonucleotide solution was added to the plate at the ratio of 40 μl per well. The final concentration of oligonucleotide was adjusted to 520 nM.
(§5) Under the above conditions, culture was continued for further three days. Using Cell Death Detection ELISA^PLUS Kit (Roche Diagnostics), in accordance with the attached protocol, apopyosis induction activity by the above oligonucleotide was measured.

HCT 116 = assay: as above; conditions: for Apoptosis inducing activity (A405-A492), Average: HCT 116, oligonucleotide 520 nM, three days
Protocol: as §2, §3, §4, §5

LS 174T = assay: as above; conditions: for Apoptosis inducing activity (A405-A492), Average: LS174T, oligonucleotide 33 nM, three days
Protocol: as §2, §3, §4, §5

Substance	expression level of the TGR23 gene per 1 ng of total RNA (TGR23 gene in COLO 205)	expression level of the TGR23 gene per 1 ng of total RNA (TGR23 gene in LS 174T)	Apoptosis inducing activity (A405-A492), Average (COLO 205)	Apoptosis inducing activity (A405-A492), Average (HCT 116)	Apoptosis inducing activity (A405-A492), Average (LS 174T)	apoptosis induction activity relative to control oligonucleotide (COLO 205; COLO 205, p≦0.05)	apoptosis induction activity compared with control oligonucleotide (HCT 116; HCT 116, in which TGR23 is not expressed)	apoptosis induction activity relative to control oligonucleotide (LS 174T; LS 174T, p≦0.01)
control oligonucleotide: phosphorothioated reverse sequence of SEQ ID NO: 123, negative control (TTAACTATTGAGACACCCAG; DNA, all phosphorothioate, methylation of C not given here) [reference compound]	590 copies	280 copies	0.52	0.72	0.88	–	–	–
antisense oligonucleotide: phosphorothioate oligonucleotide which hybridizes to the translation region of TGR23 gene (antisense GACCCACAGAGTTATCAATT; DNA, all phosphorothioate, methylation of C not given here)	210 copies	150 copies	0.83	0.68	1.1	1.6 fold	did not exhibit a significant apoptosis induction activity	1.3 fold
